The record followed here is US7365096B2, “Methods for selectively inhibiting Janus tyrosine kinase 3 (Jak3)” (Board of Regents, The University of Texas System, priority 2002, dated 2008).

The nature of data set [1]: Kidney function and lipid metabolism in rats on low-salt diet (FIGS. 11A-F). It is filed as in vivo, rat. The following applies: 160 mg/kg oral gavage, 14 day therapy.
Data set [2] has as its system γc/Jak3-dependent PHA-activated human T cells. Put plainly: Proliferation of PHA-activated human T cells ([3H]-thymidine). In kind it is cell-based. The following applies: for IC50: Homo sapiens. The protocol: Cell culture and treatment. The rat T-cell line Nb2-11c, originally developed by Dr. Peter Gout (Vancouver, Canada), was grown in RPMI-1640 with 10% fetal calf serum (Intergen, cat. no. 1020-90), 2 mM L-glutamine, 5 mM HEPES, pH 7.3, and penicillin-streptomycin (50 IU/ml and 50 μg/ml, respectively), at 37° C./5% CO2. Freshly explanted normal human T lymphocytes purified by isocentrifugation (Ficoll®; EM Science, Gibbstown, N.J.) were phytohemagglutinin (PHA)-activated for 72 hours as previously described.^23 T lymphocytes were made quiescent by washing and incubating for 24 hours in RPMI-1640 medium containing 1% fetal calf serum before exposure to cytokines. […] The Mannich base 649641P (NC1153) was generously provided by Dr. Jonathan Dimmock College of Pharmacy, University of Saskatchewan, Saskatoon, Saskatchewan, Canada. All cells were then stimulated with 1 nM recombinant human IL-2 (Hoffman-LaRoche, Basel, Switzerland), IL4 or IL7 (PeproTech), or ovine prolactin (PRL) supplied by the National Hormone and Pituitary Program, National Institute of Diabetes, Digestive, and Kidney Disease (Bethesda, Md.), at 37° C. Cell pellets were frozen at −70° C.
Proliferation assays. Quiescent human primary T-cells, YT or rat Nb2-11c T-cells (5.0×10^4/well) were plated in flat-bottom, 96-well microtiter plates in 200 μl of quiescent media in the absence or presence of 1 nM IL-2, -4, -7 (PeproTech, Rock Hill, N.J.), or PRL. Next, cells were treated for 16 hours with the Mannich base drug and then pulsed for 4 hours with [^3H]-thymidine (0.5 μCi/200 μl) and harvested onto fiberglass filters. [^3H]-thymidine incorporation was analyzed by liquid scintillation counting as previously described,^23 or using standard techniques that are well known in the art.

The target of another data set is T1, Jak3 (Homo sapiens, UniProt P52333).
T1 sequence (P52333 1-1124): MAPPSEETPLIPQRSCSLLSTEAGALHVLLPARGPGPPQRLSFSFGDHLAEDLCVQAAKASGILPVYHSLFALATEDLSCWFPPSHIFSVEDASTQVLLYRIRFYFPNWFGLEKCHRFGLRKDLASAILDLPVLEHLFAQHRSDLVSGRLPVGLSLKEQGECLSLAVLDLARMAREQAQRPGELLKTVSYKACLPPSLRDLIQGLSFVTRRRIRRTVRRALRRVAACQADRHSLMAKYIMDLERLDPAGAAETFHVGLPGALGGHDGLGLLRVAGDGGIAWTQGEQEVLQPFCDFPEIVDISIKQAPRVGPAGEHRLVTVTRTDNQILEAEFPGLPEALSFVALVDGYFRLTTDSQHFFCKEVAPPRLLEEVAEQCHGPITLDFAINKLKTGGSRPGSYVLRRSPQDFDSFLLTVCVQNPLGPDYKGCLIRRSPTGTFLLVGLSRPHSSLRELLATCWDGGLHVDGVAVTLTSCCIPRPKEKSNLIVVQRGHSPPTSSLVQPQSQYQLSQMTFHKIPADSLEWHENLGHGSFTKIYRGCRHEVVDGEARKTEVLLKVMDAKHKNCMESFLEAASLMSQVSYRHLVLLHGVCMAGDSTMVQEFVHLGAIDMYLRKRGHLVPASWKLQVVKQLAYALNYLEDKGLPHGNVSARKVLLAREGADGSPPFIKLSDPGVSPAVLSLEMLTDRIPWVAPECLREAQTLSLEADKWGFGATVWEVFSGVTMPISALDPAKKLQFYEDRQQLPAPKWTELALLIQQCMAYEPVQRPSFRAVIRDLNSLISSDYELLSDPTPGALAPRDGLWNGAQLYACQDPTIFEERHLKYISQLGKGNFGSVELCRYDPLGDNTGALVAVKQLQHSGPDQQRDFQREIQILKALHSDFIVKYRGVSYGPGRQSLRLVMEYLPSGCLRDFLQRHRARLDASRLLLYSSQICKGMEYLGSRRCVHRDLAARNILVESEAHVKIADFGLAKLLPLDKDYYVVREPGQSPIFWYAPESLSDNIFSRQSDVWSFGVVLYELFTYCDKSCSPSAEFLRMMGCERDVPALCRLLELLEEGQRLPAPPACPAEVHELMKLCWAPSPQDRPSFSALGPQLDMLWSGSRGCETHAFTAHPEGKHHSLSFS
Nature of the data set: Jak3 autokinase activity of immunopurified Jak3 (phosphotyrosine Western blot). It is filed as biochemical. Also on record: immunopurified Jak3 was assayed for Jak3 autokinase activity and tested by phosphotyrosine Western blot; endogenous in cells. The protocol:
Immunopurified Jak3 was assayed for Jak3 autokinase activity and tested by phosphotyrosine Western blot in the absence or presence of 100 μM ATP and/or drug and compared to controls.
Referring now to FIG. 8, direct evidence is provided that […] (NC1153) inhibits Jak3 signaling pathways. […] The bands identified as “PY-Jak3” reveal only the active Jak3 at the indicated dosages of NC1153, with or without IL-2 and ATP.
In general terms: In western blotting, separated proteins are transferred to a membrane and probed.

The conditions of data set [3]: rat, in vivo.

Like-named read-outs stand apart in the source and are kept apart here.

`CN(C)CC1CCCCCCCCCC(CN(C)C)C1=O` (mixture of isomers) [649641P (NC1153)]: the “nephrotoxicity and lipid metabolism (serum creatinine, clearance, cholesterol, triglycerides, LDL, HDL)” value in data set [1] is “is not nephrotoxic and does not affect lipid metabolism”. Moreover, the IC50 (as a rule, the concentration at which inhibition is half-maximal) in data set [2] (T-cell, 1 nM IL-4, read-out: IC50, IL4 driven cell growth) is approximately 2500 nM. The 50% inhibitory concentration (IC50) in data set [2] (T-cell, 1 nM IL-7, read-out: IC50, IL7 driven cell growth) is approximately 2500 nM. The IC50 in data set [2] (IL-2 driven T-cell growth, 16 hours drug, [3H]-thymidine, read-out: IC50, disrupting cell growth) was approximately 2500 nM. In data set [2] (dose dependent), the “IL2, IL4 or IL7 driven growth normalized to untreated controls” value is “inhibits IL2, IL4 or IL7 driven growth”. The compound also displayed an IC50 against Jak3 (100 μM ATP) of approximately 2500 nM. In addition, on Jak3 (FIG. 9B and FIG. 8), the “inhibition of Jak3 relative to Jak2 in kinase assays” value was “At least 50 fold”. Moreover, in data set [3], the HDL entry is “increased HDL”; the “HDL, LDL, or TG levels” value is recorded as “no effect”; the “TG or LDL levels” value is “without changing TG or LDL levels”; the overall toxicity conclusion entry is “free of nephrotoxic and myelotoxic effects with mild lipotoxicity on high-fat challenge”. In addition, the “peripheral blood counts (PBC)” value in data set [3] is “Neither 648641P nor CsA reduced PBC”.
